Test results reported in the supplement of paper PMC13380429.

What was measured:
Conditions in all cases: 72 h
HepG2 [1] = assay: cell viability relative to DMSO; higher = less toxic
Calu-3 [2] = assay: as above
Caco-2 [3] = assay: as above
U2OS [4] = assay: as above
HepG2 [5] = assay: relative viability EC50 (midpoint between 100% and the lowest measured viability); higher = less toxic
Calu-3 [6] = assay: as above
Caco-2 [7] = assay: as above
U2OS [8] = assay: as above
HepG2 [9] = assay: drug sensitivity score (DSS) for viability; higher = more toxic; extreme values may be limits of the assay
Calu-3 [10] = assay: as above
Caco-2 [11] = assay: as above
U2OS [12] = assay: as above
Vero E6 [13] = assay: cell viability relative to DMSO; higher = less toxic
Vero E6 [14] = assay: relative viability EC50 (midpoint between 100% and the lowest measured viability); higher = less toxic
Vero E6 [15] = assay: drug sensitivity score (DSS) for viability; higher = more toxic; extreme values may be limits of the assay

| SMILES | cell viability (HepG2 [1]; 1 nM) [%] | cell viability (HepG2 [1]; 10 nM) [%] | cell viability (HepG2 [1]; 100 nM) [%] | cell viability (HepG2 [1]; 1000 nM) [%] | cell viability (HepG2 [1]; 10000 nM) [%] | cell viability (Calu-3 [2]; 1 nM) [%] | cell viability (Calu-3 [2]; 10 nM) [%] | cell viability (Calu-3 [2]; 100 nM) [%] | cell viability (Calu-3 [2]; 1000 nM) [%] | cell viability (Calu-3 [2]; 10000 nM) [%] | cell viability (Caco-2 [3]; 1 nM) [%] | cell viability (Caco-2 [3]; 10 nM) [%] | cell viability (Caco-2 [3]; 100 nM) [%] | cell viability (Caco-2 [3]; 1000 nM) [%] | cell viability (Caco-2 [3]; 10000 nM) [%] | cell viability (U2OS [4]; 1 nM) [%] | cell viability (U2OS [4]; 10 nM) [%] | cell viability (U2OS [4]; 100 nM) [%] | cell viability (U2OS [4]; 1000 nM) [%] | cell viability (U2OS [4]; 10000 nM) [%] | relative viability EC50 (HepG2 [5]) [µM] | relative viability EC50 (Calu-3 [6]) [µM] | relative viability EC50 (Caco-2 [7]) [µM] | relative viability EC50 (U2OS [8]) [µM] | drug sensitivity score (HepG2 [9]) | drug sensitivity score (Calu-3 [10]) | drug sensitivity score (Caco-2 [11]) | drug sensitivity score (U2OS [12]) | cell viability (Vero E6 [13]; 1 nM) [%] | cell viability (Vero E6 [13]; 10 nM) [%] | cell viability (Vero E6 [13]; 100 nM) [%] | cell viability (Vero E6 [13]; 1000 nM) [%] | cell viability (Vero E6 [13]; 10000 nM) [%] | relative viability EC50 (Vero E6 [14]) [µM] | drug sensitivity score (Vero E6 [15]) |
| --- | --- | --- | --- | --- | --- | --- | --- | --- | --- | --- | --- | --- | --- | --- | --- | --- | --- | --- | --- | --- | --- | --- | --- | --- | --- | --- | --- | --- | --- | --- | --- | --- | --- | --- | --- |
| c1ccc(N2CCN(Cc3nc4ccccc4[nH]3)CC2)nc1 [ABT-724] | 92.4 | 100 | 99.2 | 95.7 | 106 | 93.5 | 105 | 101 | 104 | 114 | 91.7 | 99.8 | 97.8 | 100 | 94 | 98.8 | 103 | 98.7 | 104 | 98.6 | > 10 | > 10 | > 10 | > 10 | 0 | 0 | 0 | 0 | – | – | – | – | – | – | – |
| COC(=O)N[C@H](C(=O)N1CCC[C@H]1c1ncc(-c2ccc(-c3ccc(-c4cnc([C@@H]5CCCN5C(=O)[C@@H](NC(=O)OC)C(C)C)[nH]4)cc3)cc2)[nH]1)C(C)C [daclatasvir] | 120 | 116 | 112 | 106 | 92 | 107 | 90.6 | 93.1 | 96.1 | 99.7 | 104 | 96.1 | 107 | 98.7 | 83.1 | 104 | 101 | 101 | 102 | 90.3 | > 10 | > 10 | > 10 | > 10 | 0 | 0 | 0.5 | 0 | – | – | – | – | – | – | – |
| O=S(=O)(F)Cc1ccccc1 [phenylmethylsulfonyl-fluoride] | 109 | 114 | 97.8 | 111 | 96.7 | 105 | 101 | 103 | 98.6 | 102 | 102 | 95.6 | 103 | 99.7 | 99.2 | 106 | 99.8 | 104 | 102 | 101 | > 10 | > 10 | > 10 | > 10 | 0 | 0 | 0 | 0 | – | – | – | – | – | – | – |
| Cc1ccc(-c2nc3ccc(C)cn3c2CC(=O)N(C)C)cc1 [ZOLPIDEM] | 110 | 97.7 | 101 | 97.1 | 99.6 | 102 | 109 | 97 | 95.9 | 105 | 95.5 | 97 | 117 | 95.1 | 98.1 | 101 | 104 | 101 | 100 | 96.2 | > 10 | > 10 | > 10 | > 10 | 0 | 0 | 0 | 0 | – | – | – | – | – | – | – |
| Cc1ccc(=O)n(-c2ccccc2)c1 [pirfenidone] | 91.7 | 100 | 106 | 98.8 | 104 | 103 | 95.3 | 107 | 103 | 109 | 99.3 | 93.6 | 102 | 99.7 | 100 | – | – | – | – | – | > 10 | > 10 | > 10 | – | 0 | 0 | 0 | – | 107 | 104 | 105 | 103 | 100 | > 10 | 0 |
| C[C@@]1(C(=O)O)NCCc2cc(O)c(O)cc21 [salsolinol-1-carboxylic-acid] | 100 | 106 | 95 | 94.3 | 107 | 98.9 | 105 | 103 | 106 | 107 | 103 | 101 | 97.4 | 109 | 106 | – | – | – | – | – | > 10 | > 10 | > 10 | – | 0 | 0 | 0 | – | 100 | 95.2 | 94.8 | 92.2 | 104 | > 10 | 0 |
| Cc1cccc(C)c1NC(=O)c1ccc(N)cc1 [ameltolide] | 99.6 | 89.3 | 86.2 | 76 | 98.7 | 95.7 | 92.7 | 83 | 92.5 | 97.1 | 89.3 | 94.4 | 102 | 110 | 85.4 | 97 | 103 | 94.6 | 99.2 | 94.2 | > 10 | > 10 | > 10 | > 10 | 0 | 0 | 0.1 | 0 | – | – | – | – | – | – | – |
| Cc1ccc(NC2=NCCN2)c(Cl)c1 [tolonidine] | 116 | 109 | 109 | 99 | 111 | 101 | 112 | 96.5 | 106 | 99.3 | 90.3 | 101 | 93.9 | 99 | 99.5 | 101 | 106 | 97.3 | 102 | 96.3 | > 10 | > 10 | > 10 | > 10 | 0 | 0 | 0 | 0 | – | – | – | – | – | – | – |
| CCC(C)(CN(C)C)OC(=O)c1ccccc1 (stereo unspecified) [amyleine] | 106 | 103 | 109 | 98.1 | 88.7 | 106 | 95.6 | 101 | 102 | 114 | 115 | 88.1 | 97.3 | 101 | 92.7 | – | – | – | – | – | > 10 | > 10 | > 10 | – | 0.1 | 0 | 0 | – | 108 | 99.8 | 99 | 104 | 100 | > 10 | 0 |
| O=C1CNC(=O)CN1 [piperazinedione] | 102 | 94.9 | 96.4 | 100 | 103 | 91.8 | 99.4 | 91.8 | 93.4 | 94 | 98.3 | 102 | 98.9 | 99.4 | 94.8 | 99 | 99 | 97.4 | 101 | 99.8 | > 10 | > 10 | > 10 | > 10 | 0 | 0 | 0 | 0 | 99.5 | 96.4 | 102 | 91.4 | 74.7 | – | 2.1 |
| Nc1nc(N)nc(-c2cc(Cl)ccc2Cl)n1 [irsogladine] | 89.4 | 93.9 | 94.6 | 93.5 | 105 | 112 | 93.7 | 91.5 | 110 | 99.1 | 101 | 99 | 101 | 102 | 108 | 105 | 97.3 | 101 | 100 | 99.2 | > 10 | > 10 | > 10 | > 10 | 0 | 0 | 0 | 0 | – | – | – | – | – | – | – |
| C=CC1=C(C)c2cc3[nH]c(cc4nc(cc5[nH]c(cc1n2)c(C)c5CCC(=O)O)C(CCC(=O)O)=C4C)c(C)c3C=C [protoporphyrin-IX] | 102 | 91.1 | 105 | 94.2 | 84.6 | 97.4 | 93.8 | 105 | 97.5 | 84.1 | 101 | 102 | 92.7 | 94.4 | 76.4 | 101 | 101 | 98.2 | 101 | 88.6 | > 10 | > 10 | > 10 | > 10 | 0.8 | 0.6 | 1.4 | 0 | 99.8 | 71.4 | 110 | 75.2 | 78.6 | – | 2.6 |
| Cc1coc2c1C(=O)C(=O)c1c-2ccc2c1CCCC2(C)C [tanshinone-IIA] | 90.6 | 105 | 96.5 | 91.4 | 55.4 | 109 | 105 | 101 | 94.1 | 101 | 97.6 | 95.7 | 92.9 | 103 | 77 | 102 | 99.2 | 95.7 | 99.6 | 74.9 | – | > 10 | > 10 | – | 3.7 | 0 | 0.7 | 1 | 106 | 104 | 103 | 101 | 97.4 | > 10 | 0 |
